This passage reports IC50 results from ChEMBL document CHEMBL1132808, “Solid-phase synthesis of di- and tripeptidic hydroxamic acids as inhibitors of procollagen C-proteinase” (Bioorg Med Chem Lett, 2000).

The assay concerns the target T1, Bone morphogenetic protein 1 (Homo sapiens, UniProt P13497).
T1 sequence (P13497 whole entry): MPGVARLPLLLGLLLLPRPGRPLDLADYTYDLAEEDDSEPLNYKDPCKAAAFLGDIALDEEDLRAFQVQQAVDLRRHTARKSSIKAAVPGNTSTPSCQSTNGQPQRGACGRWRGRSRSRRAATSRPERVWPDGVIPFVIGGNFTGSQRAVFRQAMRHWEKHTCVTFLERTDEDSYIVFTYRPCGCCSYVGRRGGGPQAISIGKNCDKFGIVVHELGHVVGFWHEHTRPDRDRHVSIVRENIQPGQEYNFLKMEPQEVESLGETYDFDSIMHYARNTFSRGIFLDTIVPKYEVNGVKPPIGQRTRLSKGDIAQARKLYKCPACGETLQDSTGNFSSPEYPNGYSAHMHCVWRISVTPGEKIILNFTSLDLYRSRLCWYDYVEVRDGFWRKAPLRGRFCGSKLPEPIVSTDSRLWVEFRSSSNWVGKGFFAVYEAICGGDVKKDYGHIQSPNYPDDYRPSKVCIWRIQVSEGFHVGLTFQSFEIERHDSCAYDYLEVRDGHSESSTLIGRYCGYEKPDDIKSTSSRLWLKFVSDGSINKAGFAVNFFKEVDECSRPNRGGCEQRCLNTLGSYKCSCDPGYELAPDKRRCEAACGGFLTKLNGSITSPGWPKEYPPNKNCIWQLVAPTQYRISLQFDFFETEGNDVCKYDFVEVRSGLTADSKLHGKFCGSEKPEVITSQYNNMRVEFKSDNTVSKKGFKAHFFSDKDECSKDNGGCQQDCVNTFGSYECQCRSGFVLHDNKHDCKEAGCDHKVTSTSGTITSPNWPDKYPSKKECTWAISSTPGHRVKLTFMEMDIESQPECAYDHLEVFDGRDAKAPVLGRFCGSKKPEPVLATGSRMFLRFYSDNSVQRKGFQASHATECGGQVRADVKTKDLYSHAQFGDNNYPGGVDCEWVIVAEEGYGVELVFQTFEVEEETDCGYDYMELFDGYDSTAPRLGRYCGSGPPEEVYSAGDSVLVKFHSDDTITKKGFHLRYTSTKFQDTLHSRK
The assay can be described thus: Inhibitory effect against Procollagen C-terminal proteinase.

In the case of `CC[C@@H](C)[C@@H](NCN(Cc1ccc(F)cc1)C(=O)c1ccc(C(C)(C)C)cc1)C(=O)N[C@H](Cc1cscn1)C(=O)NO`, the IC50 is 140 nM. Under `CC[C@@H](C)[C@@H](NC(=O)OCc1ccccc1)C(=O)NCC(NC(=O)OCc1ccccc1)C(=O)NO` (some centres not stated) stands 61 nM.
